Experimental data as given in PubChem BioAssay (NCI).
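In this assay, cells in 96-well plates receive the compound at five concentrations for 48 hours. Endpoints are linearly interpolated between the surrounding concentrations. TGI marks complete inhibition of growth.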

How the values were obtained:
Experiment in all cases: NCI-60 cell line screen, 48 h
PC-3 prostate = tested on: PC-3 prostate
UACC-257 melanoma = tested on: UACC-257 melanoma
TK-10 renal = tested on: TK-10 renal
MOLT-4 leukemia = tested on: MOLT-4 leukemia
M14 melanoma = tested on: M14 melanoma
786-0 renal = tested on: 786-0 renal
HCT-116 colon = tested on: HCT-116 colon
CCRF-CEM leukemia = tested on: CCRF-CEM leukemia
MDA-N = tested on: MDA-N
DU-145 prostate = tested on: DU-145 prostate
RXF 393 renal = tested on: RXF 393 renal
U251 CNS = tested on: U251 CNS
K-562 leukemia = tested on: K-562 leukemia
HCT-15 colon = tested on: HCT-15 colon
SK-MEL-2 melanoma = tested on: SK-MEL-2 melanoma
HS 578T breast = tested on: HS 578T breast
SR leukemia = tested on: SR leukemia
MDA-MB-231 breast = tested on: MDA-MB-231 breast
A498 renal = tested on: A498 renal
OVCAR-3 ovarian = tested on: OVCAR-3 ovarian
SNB-19 CNS = tested on: SNB-19 CNS
OVCAR-5 ovarian = tested on: OVCAR-5 ovarian
SF-295 CNS = tested on: SF-295 CNS
MDA-MB-435 = tested on: MDA-MB-435
HL-60(TB) leukemia = tested on: HL-60(TB) leukemia
UO-31 renal = tested on: UO-31 renal
SK-MEL-5 melanoma = tested on: SK-MEL-5 melanoma
LOX IMVI melanoma = tested on: LOX IMVI melanoma
RPMI-8226 leukemia = tested on: RPMI-8226 leukemia
MALME-3M melanoma = tested on: MALME-3M melanoma
MCF7 breast = tested on: MCF7 breast
NCI-H23 lung = tested on: NCI-H23 lung
HOP-62 NSCLC = tested on: HOP-62 NSCLC
IGROV1 ovarian = tested on: IGROV1 ovarian
OVCAR-8 ovarian = tested on: OVCAR-8 ovarian
COLO 205 colon = tested on: COLO 205 colon
NCI-H226 lung = tested on: NCI-H226 lung
SN12C renal = tested on: SN12C renal
A549 NSCLC = tested on: A549 NSCLC
SNB-75 CNS = tested on: SNB-75 CNS
CAKI-1 renal = tested on: CAKI-1 renal
NCI-H522 lung = tested on: NCI-H522 lung
BT-549 breast = tested on: BT-549 breast
SF-539 CNS = tested on: SF-539 CNS
HCC-2998 colon = tested on: HCC-2998 colon
UACC-62 melanoma = tested on: UACC-62 melanoma
HT29 colon = tested on: HT29 colon
KM12 colon = tested on: KM12 colon
OVCAR-4 ovarian = tested on: OVCAR-4 ovarian
EKVX NSCLC = tested on: EKVX NSCLC
NCI/ADR-RES ovarian = tested on: NCI/ADR-RES ovarian
SW-620 colon = tested on: SW-620 colon
ACHN renal = tested on: ACHN renal
SK-OV-3 ovarian = tested on: SK-OV-3 ovarian
NCI-H460 lung = tested on: NCI-H460 lung
SK-MEL-28 melanoma = tested on: SK-MEL-28 melanoma
SF-268 CNS = tested on: SF-268 CNS
T-47D breast = tested on: T-47D breast
HOP-92 NSCLC = tested on: HOP-92 NSCLC

`O=C1C=CC(=O)c2c1ccc1c3ccccc3n(Cc3ccccc3)c21` gave a TGI (PC-3 prostate) of 53.3 µM, a TGI (UACC-257 melanoma) of 40.9 µM and a TGI (TK-10 renal) of 35.1 µM. The TGI (MOLT-4 leukemia) was over 38.4 µM, the TGI (M14 melanoma) was 42 µM and the TGI (786-0 renal) was 33.1 µM. The TGI (HCT-116 colon) was 51.9 µM, the TGI (CCRF-CEM leukemia) was 10.9 µM and the TGI (MDA-N) was 54.4 µM. It also gave a TGI (DU-145 prostate) of over 100 µM, a TGI (RXF 393 renal) of 32.8 µM and a TGI (U251 CNS) of over 100 µM. It also gave a TGI (K-562 leukemia) of 10.6 µM, a TGI (HCT-15 colon) of 46.2 µM and a TGI (SK-MEL-2 melanoma) of 99.6 µM. The TGI (HS 578T breast) was over 100 µM, the TGI (SR leukemia) was over 28.7 µM and the TGI (MDA-MB-231 breast) was 43.1 µM. The TGI (A498 renal) was 44.3 µM, the TGI (OVCAR-3 ovarian) was 33 µM and the TGI (SNB-19 CNS) was over 100 µM. It also gave a TGI (OVCAR-5 ovarian) of 72.4 µM, a TGI (SF-295 CNS) of over 100 µM and a TGI (MDA-MB-435) of over 56.8 µM. For the same molecule, the TGI (HL-60(TB) leukemia) was 15.3 µM, the TGI (UO-31 renal) was 50.1 µM and the TGI (SK-MEL-5 melanoma) was over 90 µM. The TGI (LOX IMVI melanoma) was 52.3 µM, the TGI (RPMI-8226 leukemia) was 34.6 µM and the TGI (MALME-3M melanoma) was 30.8 µM. For the same molecule, the TGI (MCF7 breast) was 45.6 µM, the TGI (NCI-H23 lung) was 42.7 µM and the TGI (HOP-62 NSCLC) was over 100 µM. The TGI (IGROV1 ovarian) was 46.2 µM, the TGI (OVCAR-8 ovarian) was over 100 µM and the TGI (COLO 205 colon) was 38.9 µM. It also gave a TGI (NCI-H226 lung) of 24.7 µM, a TGI (SN12C renal) of 42.9 µM and a TGI (A549 NSCLC) of over 100 µM. The TGI (SNB-75 CNS) was over 100 µM, the TGI (CAKI-1 renal) was 32 µM and the TGI (NCI-H522 lung) was 19.9 µM. For the same molecule, the TGI (BT-549 breast) was 43.9 µM, the TGI (SF-539 CNS) was over 74.1 µM and the TGI (HCC-2998 colon) was over 79.5 µM. The TGI (UACC-62 melanoma) was 67.8 µM, the TGI (HT29 colon) was 57 µM and the TGI (KM12 colon) was over 100 µM. For the same molecule, the TGI (OVCAR-4 ovarian) was 18.1 µM, the TGI (EKVX NSCLC) was over 100 µM and the TGI (NCI/ADR-RES ovarian) was over 68.4 µM. It also gave a TGI (SW-620 colon) of 25.7 µM, a TGI (ACHN renal) of 35.4 µM and a TGI (SK-OV-3 ovarian) of over 100 µM. It also gave a TGI (NCI-H460 lung) of over 100 µM, a TGI (SK-MEL-28 melanoma) of 54 µM and a TGI (SF-268 CNS) of over 77.6 µM. The TGI (T-47D breast) was 64.6 µM.

Work on `O=C(O)CSC1=NNC2(C(=O)N1)c1ccccc1-c1ccccc12` yielded a TGI (PC-3 prostate) of over 10 µM, a TGI (UACC-257 melanoma) of over 10 µM and a TGI (TK-10 renal) of over 10 µM. The TGI (MOLT-4 leukemia) was over 10 µM, the TGI (M14 melanoma) was over 10 µM and the TGI (786-0 renal) was over 10 µM. The TGI (HCT-116 colon) was over 10 µM, the TGI (CCRF-CEM leukemia) was over 10 µM and the TGI (MDA-N) was over 10 µM. It also gave a TGI (DU-145 prostate) of over 10 µM, a TGI (RXF 393 renal) of over 10 µM and a TGI (K-562 leukemia) of over 10 µM. For the same molecule, the TGI (HCT-15 colon) was over 10 µM, the TGI (HS 578T breast) was over 10 µM and the TGI (SR leukemia) was over 10 µM. The TGI (MDA-MB-231 breast) was over 10 µM, the TGI (SNB-19 CNS) was over 10 µM and the TGI (HOP-92 NSCLC) was over 10 µM. The TGI (SF-295 CNS) was over 10 µM, the TGI (MDA-MB-435) was over 10 µM and the TGI (HL-60(TB) leukemia) was over 10 µM. It also gave a TGI (UO-31 renal) of over 10 µM, a TGI (SK-MEL-5 melanoma) of over 10 µM and a TGI (LOX IMVI melanoma) of over 10 µM. The TGI (RPMI-8226 leukemia) was over 10 µM, the TGI (MALME-3M melanoma) was over 10 µM and the TGI (MCF7 breast) was over 10 µM. For the same molecule, the TGI (NCI-H23 lung) was over 10 µM, the TGI (HOP-62 NSCLC) was over 10 µM and the TGI (IGROV1 ovarian) was over 10 µM. The TGI (OVCAR-8 ovarian) was over 10 µM, the TGI (COLO 205 colon) was over 10 µM and the TGI (NCI-H226 lung) was over 10 µM. The TGI (SN12C renal) was over 10 µM, the TGI (A549 NSCLC) was over 10 µM and the TGI (SNB-75 CNS) was over 10 µM. The TGI (CAKI-1 renal) was over 10 µM, the TGI (NCI-H522 lung) was over 10 µM and the TGI (BT-549 breast) was over 10 µM. It also gave a TGI (SF-539 CNS) of over 10 µM, a TGI (HCC-2998 colon) of over 10 µM and a TGI (UACC-62 melanoma) of over 10 µM. The TGI (HT29 colon) was over 10 µM, the TGI (KM12 colon) was over 10 µM and the TGI (OVCAR-4 ovarian) was over 10 µM. For the same molecule, the TGI (EKVX NSCLC) was over 10 µM, the TGI (NCI/ADR-RES ovarian) was over 10 µM and the TGI (SW-620 colon) was over 10 µM. The TGI (ACHN renal) was over 10 µM, the TGI (SK-OV-3 ovarian) was over 10 µM and the TGI (NCI-H460 lung) was over 10 µM. For the same molecule, the TGI (SK-MEL-28 melanoma) was over 10 µM, the TGI (SF-268 CNS) was over 10 µM and the TGI (T-47D breast) was over 10 µM.
